Results as given in PMC6152134, “Synthesis and In Vitro Anticancer Activity of Novel Dehydroabietic Acid-Based Acylhydrazones” (Molecules : A Journal of Synthetic Chemistry and Natural …, 2017).

Legend:
[1] = tested on: CNE-2 (nasopharynx) human carcinoma cell line; test: MTT cytotoxicity assay, CNE-2 cells; format: cell-based; conditions: 48 h exposure
Experimental: (§1) Compounds 4a–x were evaluated for their cytotoxic activity in vitro against the human cancer cell lines, CNE-2, HepG2, HeLa, and BEL-7402 by using a 3-(4,5-dimethylthiazol-2-yl)-2,5-diphenyl tetrazolium bromide (MTT) colorimetric assay. Cisplatin was included in the experiments as a positive control, and the IC50 of DHA is also presented to compare the anticancer activities. The calculated IC50 values were reported differently according to the different cancer cells.
(§2) The CNE-2, HepG2, HeLa, and BEL-7402 cell lines used in this work were all purchased from the Institute of Biochemistry and Cell Biology, China Academy of Sciences. All were supplemented with 10% heat-inactivated fetal bovine serum in a humidified atmosphere of 5% CO2/95% air at 37 °C. In order to investigate the potential of compounds 4, cisplatin, a commercial classical anticancer drug was used as a reference drug. CNE-2, HepG2, HeLa, and BEL-7402 cells were seeded into 96-well microculture plates and allowed to adhere for 24 h, respectively. After cells were exposed to compounds at concentrations from 100 to 0.1 μM for 48 h, medium was aspirated and replenished with complete medium. IC50 values was evaluated by MTT tetrazolium dye assay. All the tests were repeated in at least three independent experiments. The IC50 values of the compounds were calculated using SPSS Version 10 software (IBM, New York, NY, USA), which defined the IC50 value as the concentration required to inhibit cell growth by 50%.

[2] = tested on: HepG2 (liver) human carcinoma cell line; test: MTT cytotoxicity assay, HepG2 cells; format: cell-based; conditions: 48 h exposure
Experimental: as §1, §2

[3] = tested on: HeLa (epithelial cervical) human carcinoma cell line; test: MTT cytotoxicity assay, HeLa cells; format: cell-based; conditions: 48 h exposure
Experimental: as §1, §2

[4] = tested on: BEL-7402 (liver) human carcinoma cell line; test: MTT cytotoxicity assay, BEL-7402 cells; format: cell-based; conditions: 48 h exposure
Experimental: as §1, §2

[5] = tested on: HL-7702 normal human liver cell line; test: MTT cytotoxicity assay, HL-7702 normal liver cells; format: cell-based
[6] = L02, normal human liver cell HL-7702

Row | Structure (SMILES) | IC50 ([1]; Homo sapiens) | IC50 ([2]; Homo sapiens, HepG2, 48 h) | IC50 ([3]; Homo sapiens, HeLa, 48 h) | IC50 ([4]; Homo sapiens) | IC50 [5, 6] | melting point | IC50 [1] | IC50 [2] | IC50 [3] | IC50 [4] | IC50 ([5]; normal human liver cell HL-7702)
1 | CC(C)c1ccc2c(c1)CCC1C(C)(C(=O)OCC(=O)NN=Cc3cc(F)cc(F)c3)CCCC21C (stereo not shown) [4w] | 15.4 ± 0.21 µM | 12.07 ± 0.07 µM | 2.21 ± 0.04 µM | 14.5 ± 0.22 µM | 66.1 ± 1.84 µM | 182.6 to 186.6 °C | – | – | – | – | –
2 | CC(C)c1ccc2c(c1)CCC1C(C)(C(=O)OCC(=O)NN=Cc3ccc([N+](=O)[O-])cc3)CCCC21C (stereo not shown) [4j] | 93.26 ± 0.52 µM | 39.5 ± 0.82 µM | 13.06 ± 0.08 µM | 27.45 ± 0.17 µM | > 100 µM | 177.2 to 179.8 °C | – | – | – | – | –
3 | COc1cccc(C=NNC(=O)COC(=O)C2(C)CCCC3(C)c4ccc(C(C)C)cc4CCC23)c1 (stereo not shown) [4o] | 86.46 ± 0.13 µM | 51.3 ± 0.63 µM | 32.06 ± 0.21 µM | 14.8 ± 0.38 µM | > 100 µM | 136.7 to 137.9 °C | – | – | – | – | –
4 | N.N.[Cl][Pt][Cl] [Cisplatin, cisplatin, reference compound] | – | – | – | – | – | – | 8.75 ± 0.24 µM | 6.42 ± 0.18 µM | 1.94 ± 0.2 µM | 12.7 ± 0.33 µM | 20.8 ± 0.83 µM
5 | CC(C)c1ccc2c(c1)CC[C@H]1[C@](C)(C(=O)O)CCC[C@]21C [DHA, dehydroabietic acid] | 88.64 ± 0.73 µM | 80.4 ± 0.84 µM | 37.4 ± 0.64 µM | 46.7 ± 0.55 µM | > 100 µM | – | – | – | – | – | –
6 | Cc1ccc(C=NNC(=O)COC(=O)C2(C)CCCC3(C)c4ccc(C(C)C)cc4CCC23)cc1 (stereo not shown) [4b] | 17.2 ± 0.21 µM | 12.4 ± 0.31 µM | 6.72 ± 0.22 µM | 15.38 ± 0.08 µM | 68.6 ± 2.14 µM | 170 to 172.1 °C | – | – | – | – | –
7 | CC(C)c1ccc2c(c1)CCC1C(C)(C(=O)OCC(=O)NN=Cc3ccccc3[N+](=O)[O-])CCCC21C (stereo not shown) [4h] | 98.78 ± 0.45 µM | 44.6 ± 0.92 µM | 15.2 ± 0.29 µM | 38.5 ± 0.52 µM | > 100 µM | 94.9 to 96.7 °C | – | – | – | – | –
8 | CC(C)c1ccc2c(c1)CCC1C(C)(C(=O)OCC(=O)NN=Cc3ccco3)CCCC21C (stereo not shown) [4f] | 51.39 ± 0.34 µM | 25.6 ± 0.35 µM | 33.23 ± 0.21 µM | 16.9 ± 0.41 µM | 61.9 ± 1.34 µM | 125.7 to 126.4 °C | – | – | – | – | –
9 | CC(C)c1ccc2c(c1)CCC1C(C)(C(=O)OCC(=O)NN=Cc3c(F)cccc3F)CCCC21C (stereo not shown) [4v] | 26.8 ± 0.46 µM | 16.9 ± 0.18 µM | 15 ± 0.21 µM | 20.5 ± 0.53 µM | 44.6 ± 2.02 µM | 107.3 to 110 °C | – | – | – | – | –
10 | CC(C)c1ccc2c(c1)CCC1C(C)(C(=O)OCC(=O)NN=Cc3cccc(Br)c3)CCCC21C (stereo not shown) [4l] | 11.45 ± 0.11 µM | 35.1 ± 0.96 µM | 25.14 ± 0.1 µM | 19.9 ± 0.27 µM | 86.4 ± 3.12 µM | 178.3 to 179.8 °C | – | – | – | – | –
11 | CC(C)c1ccc2c(c1)CCC1C(C)(C(=O)OCC(=O)NN=Cc3ccccc3F)CCCC21C (stereo not shown) [4q, Dehydroabietic acid-based 2-fluorophenyl acylhydrazone] | 27.4 ± 0.72 µM | 93.76 ± 0.39 µM | 27.71 ± 0.14 µM | 22.8 ± 0.34 µM | > 100 µM | 130.2 to 130.5 °C | – | – | – | – | –
12 | COc1ccccc1C=NNC(=O)COC(=O)C1(C)CCCC2(C)c3ccc(C(C)C)cc3CCC12 (stereo not shown) [4n] | 26.08 ± 0.05 µM | 50.1 ± 0.74 µM | 45.13 ± 0.09 µM | 23.8 ± 0.51 µM | 70.4 ± 2.23 µM | 190.3 to 191.8 °C | – | – | – | – | –
13 | CC(C)c1ccc2c(c1)CCC1C(C)(C(=O)OCC(=O)NN=Cc3ccccc3O)CCCC21C (stereo not shown) [4g] | 60.4 ± 1.02 µM | 12.5 ± 0.46 µM | 27.3 ± 0.5 µM | 36.4 ± 0.74 µM | > 100 µM | 214.9 to 215.6 °C | – | – | – | – | –
